Where two headings read alike, the source gives them in different places.
Columns and labels:
hGIPR = molecular target: T1, hGIPR (Homo sapiens, UniProt P48546); assay: hGIPR CreLuc assay in 0.5% and 100% plasma (CHO CRE-luciferase reporter cells); type: cell-based; conditions: 0.5% human plasma, read-out: hGIPR 0.5% hP
T1 construct: expressed in transfected cells; host or cells: CHO CRE-luciferase reporter cells
T1 sequence (P48546 22-466): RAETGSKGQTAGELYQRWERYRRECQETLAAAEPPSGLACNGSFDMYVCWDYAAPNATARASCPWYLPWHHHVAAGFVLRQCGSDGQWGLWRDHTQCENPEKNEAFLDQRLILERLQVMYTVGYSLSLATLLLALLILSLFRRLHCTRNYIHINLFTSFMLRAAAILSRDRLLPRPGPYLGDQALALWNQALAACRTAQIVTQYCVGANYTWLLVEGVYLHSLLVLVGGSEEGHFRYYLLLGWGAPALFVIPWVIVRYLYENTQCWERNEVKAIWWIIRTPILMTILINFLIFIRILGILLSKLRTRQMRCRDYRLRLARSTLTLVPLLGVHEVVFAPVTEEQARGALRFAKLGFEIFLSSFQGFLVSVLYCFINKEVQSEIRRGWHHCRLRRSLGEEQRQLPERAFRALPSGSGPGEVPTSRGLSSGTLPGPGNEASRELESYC

hNPY2R = molecular target: T2, hNPY2R (Homo sapiens, UniProt P49146); assay: hNPY2R CreLuc assay in 0.5% and 100% plasma (HEK-293 CRE-luciferase reporter cells); type: cell-based; conditions: HEK-293 reporter cells
T2 construct: expressed in transfected cells; host or cells: HEK-293 CRE-luciferase reporter cells
T2 sequence (P49146 1-381): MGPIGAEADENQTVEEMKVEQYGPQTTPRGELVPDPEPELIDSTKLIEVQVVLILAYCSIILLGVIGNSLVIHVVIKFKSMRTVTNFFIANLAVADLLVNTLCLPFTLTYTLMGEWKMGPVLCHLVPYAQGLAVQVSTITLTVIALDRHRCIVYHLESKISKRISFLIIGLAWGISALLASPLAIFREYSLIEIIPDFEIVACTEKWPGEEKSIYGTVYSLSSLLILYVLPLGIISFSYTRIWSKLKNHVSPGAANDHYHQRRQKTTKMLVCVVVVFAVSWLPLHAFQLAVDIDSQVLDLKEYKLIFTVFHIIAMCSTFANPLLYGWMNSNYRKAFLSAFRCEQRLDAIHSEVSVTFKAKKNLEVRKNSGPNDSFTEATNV

[1] = Solubility in 0.1 M phosphate buffer at pH 7; type: physicochemical; conditions: 0.1 M phosphate buffer at pH 7, 10 mg/mL final peptide concentration, shaking 2 hours at room temperature, peptides as TFA-salts; measured sample pH 6.5-7.0
[2] = 100% human plasma, read-out: hNPY2R 100% hP
[3] = 0.5% human plasma, read-out: hNPY2R 0.5% hP

| Compound | EC50 (hGIPR) [nM] | EC50 (hNPY2R; [2]) [nM] | solubility at 2 h [1] [µg/mL] | EC50 (hNPY2R; [3]) [nM] |
| --- | --- | --- | --- | --- |
| CC[C@H](C)[C@H](NC(=O)[C@H](CC(C)C)NC(=O)[C@H](Cc1c[nH]cn1)NC(=O)[C@H](CCCNC(=N)N)NC(=O)[C@@H](NC(=O)[C@H](Cc1ccccc1)NC(=O)[C@H](C)NC(=O)C(C)(C)NC(=O)[C@H](CCC(N)=O)NC(=O)[C@H](C)NC(=O)[C@H](CCC(N)=O)NC(=O)[C@H](CCCCN)NC(=O)[C@H](CCC(=O)O)NC(=O)[C@H](CC(C)C)NC(=O)C(C)(C)NC(=O)[C@@H](NC(=O)[C@H](CO)NC(=O)[C@H](Cc1ccc(O)cc1)NC(=O)[C@H](CC(=O)O)NC(=O)[C@H](CO)NC(=O)[C@@H](NC(=O)[C@H](Cc1ccccc1)NC(=O)[C@@H](NC(=O)CNC(=O)[C@H](CCC(=O)O)NC(=O)C(C)(C)NC(=O)[C@@H](N)Cc1ccc(O)cc1)[C@@H](C)O)[C@@H](C)O)[C@@H](C)CC)C(C)C)C(=O)N[C@@H](CC(N)=O)C(=O)N[C@@H](CCCCNC(=O)CCCCCNC(=O)CC[C@H](NC(=O)CC[C@H](NC(=O)CC[C@H](NC(=O)CC[C@H](NC(=O)CC[C@H](NC(=O)CC[C@H](NC(=O)CCCCCCCCCCCCCCCCCCC(=O)O)C(=O)O)C(=O)O)C(=O)O)C(=O)O)C(=O)O)C(=O)O)C(=O)NC(C)(C)C(=O)N[C@H](C(=O)N[C@@H](CCCNC(=N)N)C(=O)N[C@@H](CCC(N)=O)C(=O)N[C@@H](CCCNC(=N)N)C(=O)N[C@@H](Cc1ccc(O)cc1)C(N)=O)[C@@H](C)O [Compound 157, Y-Aib-E-G-T-F-T-S-D-Y-S-I-Aib-L-E-K-Q-A-Q-Aib-A-F-V-R-H-L-I-N-K(1,3)-Aib-T-R-Q-R-Y-NH2.C20DA-gGlu-gGlu-gGlu-gGlu-gGlu-gGlu-AHX(1,2)] | 0.2 | 135 | 5200 |  |
| CC[C@H](C)[C@H](NC(=O)[C@H](CC(C)C)NC(=O)[C@H](Cc1c[nH]cn1)NC(=O)[C@H](CCCNC(=N)N)NC(=O)[C@@H](NC(=O)[C@H](Cc1ccccc1)NC(=O)[C@H](C)NC(=O)C(C)(C)NC(=O)[C@H](CCC(=O)O)NC(=O)[C@H](C)NC(=O)[C@H](CCC(N)=O)NC(=O)[C@H](CCCCN)NC(=O)[C@H](CCC(=O)O)NC(=O)[C@H](CC(C)C)NC(=O)C(C)(C)NC(=O)[C@@H](NC(=O)[C@H](CO)NC(=O)[C@H](Cc1ccc(O)cc1)NC(=O)[C@H](CC(=O)O)NC(=O)[C@H](CO)NC(=O)[C@@H](NC(=O)[C@H](Cc1ccccc1)NC(=O)[C@@H](NC(=O)CNC(=O)[C@H](CCC(=O)O)NC(=O)C(C)(C)NC(=O)[C@@H](N)Cc1ccc(O)cc1)[C@@H](C)O)[C@@H](C)O)[C@@H](C)CC)C(C)C)C(=O)N[C@@H](CC(N)=O)C(=O)N[C@@H](CCCCNC(=O)[C@@H](N)CCCCNC(=O)CC[C@H](NC(=O)CC[C@H](NC(=O)COCCOCCNC(=O)CC[C@H](NC(=O)CC[C@H](NC(=O)CC[C@H](NC(=O)CCCCCCCCCCCCCCCCCCC(=O)O)C(=O)O)C(=O)O)C(=O)O)C(=O)O)C(=O)O)C(=O)NC(C)(C)C(=O)N[C@H](C(=O)N[C@@H](CCCNC(=N)N)C(=O)N[C@@H](CCC(N)=O)C(=O)N[C@@H](CCCNC(=N)N)C(=O)N[C@@H](Cc1ccc(O)cc1)C(N)=O)[C@@H](C)O [Compound 162, Y-Aib-E-G-T-F-T-S-D-Y-S-I-Aib-L-E-K-Q-A-E-Aib-A-F-V-R-H-L-I-N-K(1,3)-Aib-T-R-Q-R-Y-NH2.C20DA-gGlu-gGlu-gGlu-OEG-gGlu-gGlu-eLys(1,2)] | 0.7 | 43.8 | 8700 |  |
| CC[C@H](C)[C@H](NC(=O)[C@H](CO)NC(=O)[C@H](Cc1ccc(O)cc1)NC(=O)[C@H](CC(=O)O)NC(=O)[C@H](CO)NC(=O)[C@@H](NC(=O)[C@H](Cc1ccccc1)NC(=O)[C@@H](NC(=O)CNC(=O)[C@H](CCC(=O)O)NC(=O)C(C)(C)NC(=O)[C@@H](N)Cc1ccc(O)cc1)[C@@H](C)O)[C@@H](C)O)C(=O)N[C@@H](C)C(=O)N[C@@H](CC(C)C)C(=O)N[C@@H](CCC(=O)O)C(=O)N[C@@H](CCCCN)C(=O)N[C@@H](CCC(N)=O)C(=O)N[C@@H](C)C(=O)N[C@@H](CCC(N)=O)C(=O)NC(C)(C)C(=O)N[C@@H](C)C(=O)N[C@@H](Cc1ccccc1)C(=O)N[C@H](C(=O)N[C@@H](CCCNC(=N)N)C(=O)N[C@@H](Cc1c[nH]cn1)C(=O)N[C@@H](CC(C)C)C(=O)N[C@H](C(=O)N[C@@H](CC(N)=O)C(=O)N[C@@H](CCCCNC(=O)[C@@H](N)CCCCNC(=O)CC[C@H](NC(=O)CC[C@H](NC(=O)CC[C@H](NC(=O)CC[C@H](NC(=O)CC[C@H](NC(=O)CC[C@H](NC(=O)CCCCCCCCCCCCCCCCC(=O)O)C(=O)O)C(=O)O)C(=O)O)C(=O)O)C(=O)O)C(=O)O)C(=O)NC(C)(C)C(=O)N[C@H](C(=O)N[C@@H](CCCNC(=N)N)C(=O)N[C@@H](CCC(N)=O)C(=O)N[C@@H](CCCNC(=N)N)C(=O)N[C@@H](Cc1ccc(O)cc1)C(N)=O)[C@@H](C)O)[C@@H](C)CC)C(C)C [Compound 165, Y-Aib-E-G-T-F-T-S-D-Y-S-I-A-L-E-K-Q-A-Q-Aib-A-F-V-R-H-L-I-N-K(1,3)-Aib-T-R-Q-R-Y-NH2.C18DA-gGlu-gGlu-gGlu-gGlu-gGlu-gGlu-eLys(1,2)] | 0.3 |  | 5000 | 17.1 |
| CC[C@H](C)[C@H](NC(=O)[C@H](CC(C)C)NC(=O)[C@H](Cc1c[nH]cn1)NC(=O)[C@H](CCCNC(=N)N)NC(=O)[C@@H](NC(=O)[C@H](Cc1ccccc1)NC(=O)[C@H](C)NC(=O)[C@H](CCC(=O)O)NC(=O)[C@H](CCC(N)=O)NC(=O)[C@H](C)NC(=O)[C@H](CCC(N)=O)NC(=O)[C@H](CCCCN)NC(=O)[C@H](CCC(=O)O)NC(=O)[C@H](CC(C)C)NC(=O)C(C)(C)NC(=O)[C@@H](NC(=O)[C@H](CO)NC(=O)[C@H](Cc1ccc(O)cc1)NC(=O)[C@H](CC(=O)O)NC(=O)[C@H](CO)NC(=O)[C@@H](NC(=O)[C@H](Cc1ccccc1)NC(=O)[C@@H](NC(=O)CNC(=O)[C@H](CCC(=O)O)NC(=O)C(C)(C)NC(=O)[C@@H](N)Cc1ccc(O)cc1)[C@@H](C)O)[C@@H](C)O)[C@@H](C)CC)C(C)C)C(=O)N[C@@H](CC(N)=O)C(=O)N[C@@H](CCCCNC(=O)[C@@H](N)CCCCNC(=O)CC[C@H](NC(=O)CC[C@H](NC(=O)CC[C@H](NC(=O)CC[C@H](NC(=O)CC[C@H](NC(=O)CC[C@H](NC(=O)CCCCCCCCCCCCCCCCC(=O)O)C(=O)O)C(=O)O)C(=O)O)C(=O)O)C(=O)O)C(=O)O)C(=O)NC(C)(C)C(=O)N[C@H](C(=O)N[C@@H](CCCNC(=N)N)C(=O)N[C@@H](CCC(N)=O)C(=O)N[C@@H](CCCNC(=N)N)C(=O)N[C@@H](Cc1ccc(O)cc1)C(N)=O)[C@@H](C)O [Compound 170, Y-Aib-E-G-T-F-T-S-D-Y-S-I-Aib-L-E-K-Q-A-Q-E-A-F-V-R-H-L-I-N-K(1,3)-Aib-T-R-Q-R-Y-NH2.C18DA-gGlu-gGlu-gGlu-gGlu-gGlu-gGlu-eLys(1,2)] | 0.4 |  | 4600 | 43.8 |
| CC[C@H](C)[C@H](NC(=O)[C@H](CC(C)C)NC(=O)[C@H](Cc1c[nH]cn1)NC(=O)[C@H](CCCNC(=N)N)NC(=O)[C@@H](NC(=O)[C@H](Cc1ccccc1)NC(=O)[C@H](C)NC(=O)C(C)(C)NC(=O)[C@H](CCC(N)=O)NC(=O)[C@H](C)NC(=O)[C@H](CCC(N)=O)NC(=O)[C@H](CCCCN)NC(=O)[C@H](CCC(=O)O)NC(=O)[C@H](CC(C)C)NC(=O)C(C)(C)NC(=O)[C@@H](NC(=O)[C@H](CO)NC(=O)[C@H](Cc1ccc(O)cc1)NC(=O)[C@H](CC(=O)O)NC(=O)[C@H](CO)NC(=O)[C@@H](NC(=O)[C@H](Cc1ccccc1)NC(=O)[C@@H](NC(=O)CNC(=O)[C@H](CCC(=O)O)NC(=O)C(C)(C)NC(=O)[C@@H](N)Cc1ccc(O)cc1)[C@@H](C)O)[C@@H](C)O)[C@@H](C)CC)C(C)C)C(=O)N[C@@H](CC(N)=O)C(=O)N[C@@H](CCCCNC(=O)[C@@H](N)CCCCNC(=O)CC[C@H](NC(=O)CC[C@H](NC(=O)CC[C@H](NC(=O)CC[C@H](NC(=O)CC[C@H](NC(=O)CC[C@H](NC(=O)CCCCCCCCCCCCCCCCC(=O)O)C(=O)O)C(=O)O)C(=O)O)C(=O)O)C(=O)O)C(=O)O)C(=O)N[C@@H](Cc1c[nH]c2ccccc12)C(=O)N[C@H](C(=O)N[C@@H](CCCNC(=N)N)C(=O)N[C@@H](CCC(N)=O)C(=O)N[C@@H](CCCNC(=N)N)C(=O)N[C@@H](Cc1ccc(O)cc1)C(N)=O)[C@@H](C)O [Compound 172, Y-Aib-E-G-T-F-T-S-D-Y-S-I-Aib-L-E-K-Q-A-Q-Aib-A-F-V-R-H-L-I-N-K(1,3)-W-T-R-Q-R-Y-NH2.C18DA-gGlu-gGlu-gGlu-gGlu-gGlu-gGlu-eLys(1,2)] | 1.7 | 136 | 3100 |  |

Reference: patent publication US20250382344A1, “Soluble GLP1/GIP/NPY2 Receptor Triple Agonists” (Boehringer Ingelheim International GmH, priority 2024, published 2025)
